US5462725A, “2-pyridylmethylenepolyazamacrocyclophosphonic acids, complexes and derivatives thereof, for use as contrast agents” (priority 1993, dated 1995)
Like-named read-outs stand apart in the source and are kept apart here.

How the values were obtained:
[1] = Biodistribution of 153Sm complex after tail vein injection; format: in vivo, Sprague Dawley rats; settings: rat, i.v. tail vein; for % INJECTED DOSE, Blood: blood assumed 6.5% of body weight; for % INJECTED DOSE, Bone: femur x 25; for % INJECTED DOSE, Muscle: muscle assumed 43% of body weight
Protocol: Sprague Dawley rats were allowed to acclimate for five days then injected with 100 μL of the complex solution via a tail vein. The rats weighed between 150 and 200 g at the time of injection. After 30 min. the rats were killed by cervical dislocation and dissected. The amount of radioactivity in each tissue was determined by counting in a NaI scintillation counter coupled to a multichannel analyzer. The counts were compared to the counts in 100 μL standards in order to determine the percentage of the dose in each tissue or organ.
The percent dose in blood was estimated assuming blood to be 6.5% of the total body weight. The percent dose in bone was estimated by multiplying the percent dose in the femur by 25. The percent dose in muscle was estimated assuming muscle to be 43% of the total body weight. The number of rats used in the average is n.
In addition to organ biodistribution, chelates of the compounds of Formula (I) were evaluated for efficiency of bone localization since phosphonates are known for their ability to bind to hydroxyapatite.
When the complex ^153 Sm[N-(2-pyridylmethyl)-N',N",N'"-tris(methylenephosphonic acid ethyl ester)-1,4,7,10-tetraazacyclododecane] The numbers represent the average of a minimum of 2 rats per data point at 2 hours post injection.
When the complex ^153 Sm[N-(2-pyridylmethyl)-N',N",N'"-tris(methylenephosphonic acid propyl ester)-1,4,7,10-tetraazacyclododecane] The numbers represent the average of a minimum of 3 rats per data point at 2 and 24 hours post injection.

[2] = background; cited from earlier work
[3] = in vivo; cited from earlier work
[4] = background; cited from earlier work; remark: listed apart in the source

Compound | % Complex (pH 1) [%] | % Complex (pH 3) [%] | % Complex (pH 5) [%] | % Complex (pH 7) [%] | % Complex (pH 9) [%] | % Complex (pH 11) [%] | % Complex (pH 14) [%] | % INJECTED DOSE, Brain ([1]; 2 hours post injection) [% INJECTED DOSE] | % INJECTED DOSE, Heart ([1]; 2 hours post injection) [% INJECTED DOSE] | % INJECTED DOSE, Kidney ([1]; 2 hours post injection) [% INJECTED DOSE] | % INJECTED DOSE, Liver ([1]; 2 hours post injection) [% INJECTED DOSE] | % INJECTED DOSE, Lung ([1]; 2 hours post injection) [% INJECTED DOSE] | % INJECTED DOSE, Spleen ([1]; 2 hours post injection) [% INJECTED DOSE] | % INJECTED DOSE, Urine ([1]; 2 hours post injection) [% INJECTED DOSE] | % INJECTED DOSE, Blood ([1]; 2 hours post injection) [% INJECTED DOSE] | % INJECTED DOSE, Bone ([1]; 2 hours post injection) [% INJECTED DOSE] | % INJECTED DOSE, Muscle ([1]; 2 hours post injection) [% INJECTED DOSE] | side effects / toxicity [2] | distribution and elimination [3] | other results
CCOP(=O)([O-])CN1CCN(Cc2ccccn2)CCN(CP(=O)([O-])OCC)CCN(CP(=O)([O-])OCC)CC1.[153Sm+3] [^153 Sm-PD3EP, ^153 Sm[N-(2-pyridylmethyl)-N',N",N'"-tris(methylenephosphonic acid ethyl ester)-1,4,7,10-tetraazacyclododecane]] | 78.95 | 93.80 | 93.02 | 93.77 | 95.89 | 95.77 | 94.07 | 0.01 | 0.01 | 1.24 | 0.36 | 0.02 | 0.01 | 97.00 | 0.45 | 0.82 | 0.62 | – | – | –
[Cl][Gd]([Cl])[Cl] [GdCl3] | – | – | – | – | – | – | – | – | – | – | – | – | – | – | – | – | – | toxic to an animal | – | –
O=C([O-])CN1CCN(CC(=O)[O-])CCN(Cc2ccccn2)CCN(CC(=O)[O-])CC1.[153Sm+3] [^153 Sm-PD3A] | 98.30 | – | – | 99.86 | 99.86 | 99.80 | 99.96 | – | – | – | – | – | – | – | – | – | – | – | – | % Complex (pH 2): 99.38%; % Complex (pH 4): 99.62%
CC(O)CN1CCN(CC(=O)[O-])CCN(CC(=O)[O-])CCN(CC(=O)[O-])CC1.[Gd+3] (stereo not drawn) [Prohance™, [1,4,7-tris(carboxymethyl)-10-(2-hydroxypropyl)-1,4,7,10-tetraazacyclododecanato]gadolinium] | – | – | – | – | – | – | – | – | – | – | – | – | – | – | – | – | – | fewer side effects than Magnevist™ | freely distribute in extracellular fluid followed by efficient elimination through the renal system | kinetic stability of DO3A derivative chelates [4]: gains added kinetic stability by virtue of a pendant hydroxyl moiety
CNC[C@H](O)[C@@H](O)[C@H](O)[C@H](O)CO.CNC[C@H](O)[C@@H](O)[C@H](O)[C@H](O)CO.O=C([O-])CN(CCN(CC(=O)[O-])CC(=O)O)CCN(CC(=O)[O-])CC(=O)O.[Gd+3] [Magnevist™, complex of gadolinium with diethylenetriaminepentaacetic acid] | – | – | – | – | – | – | – | – | – | – | – | – | – | – | – | – | – | – | freely distribute in extracellular fluid followed by efficient elimination through the renal system | –
CCCOP(=O)([O-])CN1CCN(Cc2ccccn2)CCN(CP(=O)([O-])OCCC)CCN(CP(=O)([O-])OCCC)CC1.[153Sm+3] [^153 Sm-PD3PP, ^153 Sm[N-(2-pyridylmethyl)-N',N",N'"-tris(methylenephosphonic acid propyl ester)-1,4,7,10-tetraazacyclododecane]] | 72.52 | 87.56 | 92.99 | 95.06 | 95.22 | 92.74 | 87.65 | 0.04 | 0.04 | 0.86 | 20.36 | 0.20 | 1.19 | 50.00 | 0.68 | 5.93 | 0.82 | – | – | % INJECTED DOSE, Large Intestine ([1]; 2 hours post injection): 0.18 % INJECTED DOSE; % INJECTED DOSE, Small intestine ([1]; 2 hours post injection): 13.56 % INJECTED DOSE; % INJECTED DOSE, Stomach ([1]; 2 hours post injection): 1.39 % INJECTED DOSE; % INJECTED DOSE, Brain ([1]; 24 hours post injection): 0.00 % INJECTED DOSE; % INJECTED DOSE, Feces ([1]; 24 hours post injection): 5.33 % INJECTED DOSE; % INJECTED DOSE, Heart ([1]; 24 hours post injection): 0.02 % INJECTED DOSE; % INJECTED DOSE, Kidney ([1]; 24 hours post injection): 0.89 % INJECTED DOSE; % INJECTED DOSE, Large Intestine ([1]; 24 hours post injection): 0.16 % INJECTED DOSE; % INJECTED DOSE, Liver ([1]; 24 hours post injection): 2.31 % INJECTED DOSE; % INJECTED DOSE, Lung ([1]; 24 hours post injection): 0.40 % INJECTED DOSE; % INJECTED DOSE, Small intestine ([1]; 24 hours post injection): 0.13 % INJECTED DOSE; % INJECTED DOSE, Spleen ([1]; 24 hours post injection): 0.22 % INJECTED DOSE; % INJECTED DOSE, Stomach ([1]; 24 hours post injection): 0.04 % INJECTED DOSE; % INJECTED DOSE, Urine ([1]; 24 hours post injection): 83.00 % INJECTED DOSE; % INJECTED DOSE, Blood ([1]; 24 hours post injection): 0.03 % INJECTED DOSE; % INJECTED DOSE, Bone ([1]; 24 hours post injection): 12.39 % INJECTED DOSE; % INJECTED DOSE, Muscle ([1]; 24 hours post injection): 0.27 % INJECTED DOSE
